# Test results reported in article PMC9508196 (Scientific Reports, 2022).
# Non-standard residues stand in square brackets, D forms with d. Residues, ends and D or L forms follow the SMILES beside them.
# Test system: A. baumannii ATCC 19,606
# Assay: microbe, parasite or virus in culture
# Settings: 20 serial 24-h passages at half-MIC, MHB
# Procedure: A. baumannii ATCC 19,606 was adjusted to approximately 10^6 CFU/ml in MHB. […] After 24 h incubation, bacterial suspensions of the wells at half-MIC concentration of tested agent were taken and washed 2 times with MHB to prepare the next initial-passage of bacteria. Twenty repeat passages were performed for each tested compound. Along with the test, a negative control was included: the MIC value of bacteria cultured in MHB-deionized water after 20 passages.
compound,measurement,value
CC[C@@H](C)[C@@H](NC(=O)[C@@H](CCCCN)NC(=O)CNC(=O)[C@@H](C)NC(=O)[C@H](NC(=O)[C@@H](CCCCN)NC(=O)[C@@H](CCCCN)NC(=O)[C@H](NC(=O)[C@@H](CCCNC(=N)N)NC(=O)[C@@H](CCCNC(=N)N)NC(=O)[C@@H](Cc1ccccc1)NC(=O)[C@@H](CC(C)C)NC(=O)[C@H](N)CCCNC(=N)N)C(C)C)C(C)C)C(=O)N[C@H](C)C(=O)N[C@H](CCCCN)C(=O)N[C@H](CCCNC(=N)N)C(=O)N[C@@H](C(=O)N[C@H](Cc1c[nH]c2ccccc12)C(=O)N[C@H](CCCCN)C(N)=O)[C@H](C)CC [D-AP19] (H-[dR][dL][dF][dR][dR][dV][dK][dK][dV][dA]G[dK][dI][dA][dK][dR][dI][dW][dK]-NH2),MIC after 20 passages,7.81 µg/mL
